Here are results for 4 compounds from PMC6600263, “Neuroprotective Effects of Red Ginseng Saponins in Scopolamine-Treated Rats and Activity Screening Based on Pharmacokinetics” (Molecules, 2019).

Like-named read-outs stand apart in the source and are kept apart here.

The test system of series [1] is recognition deficits induced by cyproheptadine. Further details: method as in PMID 23717153. The following applies: rats; cited from earlier work.
Series [2] in a line: pharmacokinetics of 16 ginsenosides in rat plasma after oral administration of RGS. It is filed as in vivo. The procedure:
The SD rats were randomly allocated into two groups, i.e., normal group and SA-treated group.
Blood samples were collected from the postocular vein at 0.083, 0.25, 0.5, 1, 2, 3, 4, 6, 8, 12 and 24 h after SA injection. Blood sample immediately was centrifuged at 18,000 rpm for 10 min. Plasma was withdrawn (0.15 mL) and diluted with 0.3 mL of acetonitrile and 20 µL of the IS (6 µg/mL). After 30 min, the mixture was clarified by centrifugation at 18,000 rpm for 10 min at 4 °C. The supernatant was dried under a stream of N2, and the residue was dissolved in 0.1 mL of methanol and stored at −20 °C for further analysis.
The UPLC-MS/MS system (Waters Xeve TQ, Waters, Cork, Ireland) with a column C18 (ACQUITY, 1.7 μm, 2.1 × 50 mm, Waters, Cork, Ireland) were adopted at 35 °C. Water (A) and acetonitrile (B) were used as mobile phases at a flow rate of 0.4 mL/min. The treatment of elution was performed according to following pattern: 10% B for 0–5.0 min; 10→15% B for 5.0–8.0 min; 15→25% B for 8.0–12.0 min; 25→40% for 12.0–20.0 min; 40→50% B for 20.0–25.0 min; 50→65% B for 25.0–30.0 min. With regard to mass detection, the negative mode of electrospray ionization source was adopted. The optimized parameters of multiple reactions monitoring (MRM) system including collision energy, Q1 Pre Bias, Q3 Pre Bias, collision energy and MRM transition of the 16 ginsenosides are shown in Table 1.
Based on a non-compartmental method, WinNonlin software (Phoenix, version 6.1) was employed to calculate the pharmacokinetic parameters. The statistical difference between groups was analyzed by One-Way ANOVA analysis using SPSS Version 17.0. (SPSS Inc., Chicago, IL, USA). The difference between groups was regarded significant when p < 0.05. We first normalized the pharmacokinetic data and then visualized them based on principal component analysis (PCA).

The subject of series [3] is scopolamine-induced learning ability impairment. Also on record: method as in PMID 24503167. The conditions noted are these: rats; cited from earlier work.
Where [4] appears, read: SD, rat, in vivo, po, 100 mg/kg.
Where [5] appears, read: SD, rat, plasma, po, 100 mg/kg, model (scopolamine 1 mg/kg i.p.-treated) rats, oral RGS single dose 100 mg/kg, plasma, mean ± S.D., n = 5, read-out: C Max.
The mark [6] stands for this setting: SD, rat, plasma, po, 100 mg/kg, model (scopolamine 1 mg/kg i.p.-treated) rats, oral RGS single dose 100 mg/kg, plasma, mean ± S.D., n = 5, read-out: MRT.
The mark [7] stands for this setting: SD, rat, plasma, po, 100 mg/kg, model (scopolamine 1 mg/kg i.p.-treated) rats, oral RGS single dose 100 mg/kg, plasma, mean ± S.D., n = 5, read-out: T1/2 (converted).
Where [8] appears, read: SD, rat, plasma, po, 100 mg/kg, model (scopolamine 1 mg/kg i.p.-treated) rats, oral RGS single dose 100 mg/kg, plasma, mean ± S.D., n = 5, read-out: T Max.
Setting [9] is: SD, rat, plasma, po, 100 mg/kg, normal rats, oral RGS single dose 100 mg/kg, plasma, mean ± S.D., n = 5, read-out: C Max.
The mark [10] stands for this setting: SD, rat, plasma, po, 100 mg/kg, normal rats, oral RGS single dose 100 mg/kg, plasma, mean ± S.D., n = 5, read-out: MRT.
The mark [11] stands for this setting: SD, rat, plasma, po, 100 mg/kg, normal rats, oral RGS single dose 100 mg/kg, plasma, mean ± S.D., n = 5, read-out: T1/2 (converted).
Setting [12] is: SD, rat, plasma, po, 100 mg/kg, normal rats, oral RGS single dose 100 mg/kg, plasma, mean ± S.D., n = 5, read-out: T Max.
Setting [13] is: model (scopolamine 1 mg/kg i.p.-treated) rats, oral RGS single dose 100 mg/kg, plasma, mean ± S.D., n = 5.
Where [14] appears, read: normal rats, oral RGS single dose 100 mg/kg, plasma, mean ± S.D., n = 5.

For the compound `CC(C)=CCC[C@](C)(O)[C@H]1CC[C@]2(C)[C@@H]1[C@H](O)C[C@@H]1[C@@]3(C)CC[C@H](O)C(C)(C)[C@@H]3[C@@H](O[C@@H]3O[C@H](CO)[C@@H](O)[C@H](O)[C@H]3O[C@@H]3O[C@@H](C)[C@H](O)[C@@H](O)[C@H]3O)C[C@]12C` [Rg2, Ginsenoside Rg2], the “effect on recognition deficits induced by cyproheptadine” value in series [1] is “improves”. In series [2] (setting [4]), the “C Max” value stood at 26.3 ± 4.8 ng/g, the MRT came out at 26.5 ± 3.6 h and the T1/2 is recorded as 18.9 ± 1.6 h. The Cmax in series [2] (SD, rat, in vivo, po, 100 mg/kg, C Max) turned out to be 15.3 ± 5.6 ng/g. In addition, the MRT in series [2] (SD, rat, in vivo, po, 100 mg/kg, MRT) stood at 22.3 ± 1.4 h. For the same compound, in series [2] (SD, rat, in vivo, po, 100 mg/kg, T1/2), the half-life is 1190 ± 150 min. Moreover, the Tmax in series [2] (SD, rat, in vivo, po, 100 mg/kg, T Max) was determined as 1.5 ± 0.8 h.
Regarding `CC(C)=CCCC(C)(OC1OC(COC2OC(CO)C(O)C(O)C2O)C(O)C(O)C1O)C1CCC2(C)C1C(O)CC1C3(C)CCC(OC4OC(CO)C(O)C(O)C4OC4OC(CO)C(O)C(O)C4O)C(C)(C)C3CCC12C` (centres unmarked) [Rb1], the “effect on scopolamine-induced learning ability impairment” value in series [3] is “do not”. For the same compound, the Cmax in series [2] (setting [5]) worked out at 34.8 ± 2.7 ng/g; in series [2] (setting [9]), 35.2 ± 4.9 ng/g. In addition, the MRT in series [2] (setting [6]) was 6.5 ± 1.5 h; in series [2] (setting [10]), 6.2 ± 1.8 h. Moreover, the half-life in series [2] (setting [7]) was 288 ± 66 min; in series [2] (setting [11]) it was 258 ± 48 min. Further, the Tmax in series [2] (setting [8]) was found to be 4.1 ± 0.8 h; in series [2] (setting [12]), 4.6 ± 1.1 h. For the same compound, the “AUC 0-t” value in series [2] (setting [13]) was found to be 298.9 ± 11.7 ng·h/g; in series [2] (setting [14]), 255.6 ± 7.4 ng·h/g.
On to `CC(C)=CCCC(C)(OC1OC(CO)C(O)C(O)C1O)C1CCC2(C)C1C(O)CC1C3(C)CCC(OC4OC(CO)C(O)C(O)C4OC4OC(CO)C(O)C(O)C4O)C(C)(C)C3CCC12C` (centres unmarked) [Rd], for which the “effect on scopolamine-induced learning ability impairment” value in series [3] is given as “do not”. In addition, the Cmax in series [2] (setting [5]) was 45.6 ± 2.9 ng/g; in series [2] (setting [9]) it was 47.5 ± 2.6 ng/g. Moreover, the results for the MRT in series [2] (setting [6]) and in series [2] (setting [10]) were 7.7 ± 1.3 h and 8.6 ± 1.2 h, respectively. Further, the half-life in series [2] (setting [7]) was 372 ± 114 min; in series [2] (setting [11]), 330 ± 336 min. For the same compound, the Tmax in series [2] (setting [8]) turned out to be 2 ± 0.8 h; in series [2] (setting [12]) it was 1.5 ± 0.4 h. Also, the “AUC 0-t” value in series [2] (setting [13]) stood at 331.2 ± 11.2 ng·h/g; in series [2] (setting [14]) it was 321.5 ± 9.1 ng·h/g.
For `CC(C)=CCCC(C)(OC1OC(CO)C(O)C(O)C1O)C1CCC2(C)C1C(O)CC1C3(C)CCC(O)C(C)(C)C3C(OC3OC(CO)C(O)C(O)C3O)CC12C` (centres unmarked) [Rg1], in series [3], the “effect on scopolamine-induced learning ability impairment” value is “improves”. The Cmax in series [2] (setting [5]) came to 32.2 ± 2.1 ng/g; in series [2] (setting [9]), 20.5 ± 2.5 ng/g. Further, the MRT was 16.5 ± 3.2 h in series [2] (setting [6]) and 15.6 ± 2.1 h in series [2] (setting [10]). For the same compound, the values for the half-life in series [2] (setting [7]) and in series [2] (setting [11]) were 612 ± 72 min and 576 ± 90 min, respectively. Further, the Tmax in series [2] (setting [8]) came to 4 ± 0.9 h; in series [2] (setting [12]), 4 ± 1.2 h. Moreover, the “AUC 0-t” value in series [2] (setting [13]) came out at 664.5 ± 15.2 ng·h/g; in series [2] (setting [14]), 568.9 ± 10.3 ng·h/g.

The term MRT denotes a mean duration of stay, worked out from the concentration-time curve.
